# Active and inactive are the calls of the source. No cut-off for these calls is given here.
# Experiments:
# Aspergillus flavus [1] = assay: Antifungal activity against Aspergillus flavus by agar well diffusion method; type: functional
# Fusarium solani [2] = assay: Antifungal activity against Fusarium solani by agar well diffusion method; type: functional
# Aspergillus niger [3] = assay: Antifungal activity against Aspergillus niger by agar well diffusion method; type: functional
# Candida albicans [4] = assay: Antifungal activity against Candida albicans by agar well diffusion method; type: functional
# Escherichia coli [5] = assay: Antibacterial activity against Escherichia coli by agar well diffusion method; type: functional
# Salmonella typhimurium [6] = assay: Antibacterial activity against Salmonella enterica subsp. enterica serovar Typhimurium by agar well diffusion method; type: functional
# Bacillus subtilis [7] = assay: Antibacterial activity against Bacillus subtilis by agar well diffusion method; type: functional
# Staphylococcus aureus = assay: Antibacterial activity against Staphylococcus aureus by agar well diffusion method; type: functional
# THP-1 [8] = assay: Anti-inflammatory activity in Homo sapiens (human) THP1 cells assessed as inhibition of LPS-induced IL-6 production preincubated at 10 uM for 30 min before LPS treatment measured after 24 hr by ELISA; type: functional
# THP-1 [9] = assay: Anti-inflammatory activity in Homo sapiens (human) THP1 cells assessed as inhibition of LPS-induced TNF-alpha production preincubated at 10 uM for 30 min before LPS treatment measured after 24 hr by ELISA; type: functional
# Aspergillus flavus [10] = assay: Antifungal activity against Aspergillus flavus up to 200 ug/ml by agar well diffusion method; type: functional, organism-based
# Aspergillus niger [11] = assay: Antifungal activity against Aspergillus niger up to 200 ug/ml by agar well diffusion method; type: functional, organism-based
# Salmonella typhimurium [12] = assay: Antibacterial activity against Salmonella enterica subsp. enterica serovar Typhimurium up to 200 ug/ml by agar well diffusion method; type: functional, organism-based
# Escherichia coli [13] = assay: Antibacterial activity against Escherichia coli up to 200 ug/ml by agar well diffusion method; type: functional, organism-based
# Bacillus subtilis [14] = assay: Antibacterial activity against Bacillus subtilis up to 200 ug/ml by agar well diffusion method; type: functional, organism-based
# Fusarium solani [15] = assay: Antifungal activity against Fusarium solani up to 200 ug/ml by agar well diffusion method; type: functional, organism-based
# THP-1 [16] = assay: Anti-inflammatory activity in Homo sapiens (human) THP1 cells assessed as inhibition of LPS-induced IL-6 production preincubated at 1 uM for 30 min before LPS treatment measured after 24 hr by ELISA; type: functional
# THP-1 [17] = assay: Anti-inflammatory activity in Homo sapiens (human) THP1 cells assessed as inhibition of LPS-induced TNF-alpha production preincubated at 1 uM for 30 min before LPS treatment measured after 24 hr by ELISA; type: functional
# Candida albicans [18] = assay: Antifungal activity against Candida albicans up to 200 ug/ml by agar well diffusion method; type: functional, organism-based
SMILES,MIC (Aspergillus flavus [1]) [µg/mL],MIC (Fusarium solani [2]) [µg/mL],MIC (Aspergillus niger [3]) [µg/mL],MIC (Candida albicans [4]) [µg/mL],MIC (Escherichia coli [5]) [µg/mL],MIC (Salmonella typhimurium [6]) [µg/mL],MIC (Bacillus subtilis [7]) [µg/mL],MIC (Staphylococcus aureus) [µg/mL],inhibition at 10 µM (THP-1 [8]) [%],inhibition at 10 µM (THP-1 [9]) [%],Activity (Aspergillus flavus [10]),Activity (Aspergillus niger [11]),Activity (Salmonella typhimurium [12]),Activity (Escherichia coli [13]),Activity (Bacillus subtilis [14]),Activity (Fusarium solani [15]),inhibition at 1 µM (THP-1 [16]) [%],inhibition at 1 µM (THP-1 [17]) [%],Activity (Candida albicans [18])
CCOC(=O)C1=C(C)NC(=S)NC1c1ccc(NC(=S)Nc2cccc(C(F)(F)F)c2)cc1 (stereo not given),15,15,25,15,20,15,35,20,16,0,–,–,–,–,–,–,–,–,–
CCOC(=O)C1=C(C)NC(=S)NC1c1ccc(NC(=S)Nc2ccc(F)c(C)c2)cc1 (stereo not given),–,95,–,95,–,–,–,80,27,0,inactive,inactive,inactive,inactive,inactive,–,–,–,–
CCOC(=O)C1=C(C)NC(=S)NC1c1ccc(NC(=S)Nc2c(F)cccc2Cl)cc1 (stereo not given),–,–,85,65,85,60,80,60,56,42,inactive,–,–,–,–,inactive,–,–,–
O=C(O)c1cn(C2CC2)c2cc(N3CCNCC3)c(F)cc2c1=O [CIPROFLOXACIN],–,–,–,–,15,25,25,–,–,–,–,–,–,–,–,–,–,–,–
CCOC(=O)C1=C(C)NC(=S)NC1c1ccc(NC(=S)Nc2ccccc2C(F)(F)F)cc1 (stereo not given),20,20,50,20,15,40,10,10,18,8,–,–,–,–,–,–,–,–,–
C[C@@H]1C[C@H]2[C@@H]3CCC4=CC(=O)C=C[C@]4(C)[C@@]3(F)[C@@H](O)C[C@]2(C)[C@@]1(O)C(=O)CO [DEXAMETHASONE],–,–,–,–,–,–,–,–,–,–,–,–,–,–,–,–,84,71,–
CCOC(=O)C1=C(C)NC(=S)NC1c1ccc(NC(=S)Nc2ccc(C(F)(F)F)cc2Cl)cc1 (stereo not given),60,90,55,50,65,55,55,90,68,55,–,–,–,–,–,–,–,–,–
CCOC(=O)C1=C(C)NC(=S)NC1c1ccc(NC(=S)Nc2ccccc2Cl)cc1 (stereo not given),15,10,10,10,10,20,35,20,36,0,–,–,–,–,–,–,–,–,–
CCOC(=O)C1=C(C)NC(=S)NC1c1ccc(NC(=S)Nc2ccc(C(C)C)cc2)cc1 (stereo not given),95,70,80,80,90,90,55,70,90,61,–,–,–,–,–,–,–,–,–
CCOC(=O)C1=C(C)NC(=S)NC1c1ccc(NC(=S)Nc2cc(F)cc(F)c2)cc1 (stereo not given),–,–,85,–,–,90,90,65,82,55,inactive,–,–,inactive,–,inactive,–,–,inactive
CCOC(=O)C1=C(C)NC(=S)NC1c1ccc(NC(=S)Nc2c(C)cccc2F)cc1 (stereo not given),60,65,55,50,70,90,–,90,16,0,–,–,–,–,inactive,–,–,–,–
CCOC(=O)C1=C(C)NC(=S)NC1c1ccc(N)cc1 (stereo not given),80,35,55,55,40,45,85,60,3,0,–,–,–,–,–,–,–,–,–
CCOC(=O)C1=C(C)NC(=S)NC1c1ccc(NC(=S)Nc2ccccc2F)cc1 (stereo not given),15,15,10,10,10,15,25,10,22,0,–,–,–,–,–,–,–,–,–
